# Reference: ChEMBL document CHEMBL6087488, “Development of the First-in-Class FEM1B-Recruiting Histone Deacetylase Degraders” (J Med Chem, 2025)
# pEC50: −log10 of the molar value.
# Tested on: MM1.S
# Test: Antiproliferative activity against human MM1.S cells assessed as cell viability measured after 72 hrs by CellTiter-Glo cell viability assay
# Format: functional, cell-based
# Conditions: Homo sapiens, MM1.S, 72 h
row,Compound,pEC50
1,N#CCCN(C(=O)CCl)c1ccc2c(c1)OCCN2CC(=O)NCCOCCOCCC(=O)Nc1ccc(C(=O)NCCCCCCC(=O)NO)cc1,4.57
2,N#CCCN(C(=O)CCl)c1ccc2c(c1)OCCN2CC(=O)NC1CCC(C(=O)Nc2ccc(C(=O)NCCCCCCC(=O)NO)cc2)CC1 (stereo not given),5.11
3,N#CCCN(C(=O)CCl)c1ccc2c(c1)OCCN2CC(=O)NCCOCCOCCOCCC(=O)Nc1ccc(C(=O)NCCCCCCC(=O)NO)cc1,4.45

# Next, values leading:
row,pEC50,Compound
1,5.82,N#CCCN(C(=O)CCl)c1ccc2c(c1)OCCN2CC(=O)NCCCCCCCCCCCC(=O)Nc1ccc(C(=O)NCCCCCCC(=O)NO)cc1
2,5.19,N#CCCN(C(=O)CCl)c1ccc2c(c1)OCCN2CC(=O)NC[C@H]1CC[C@H](C(=O)Nc2ccc(C(=O)NCCCCCCC(=O)NO)cc2)CC1
3,5.13,N#CCCN(C(=O)CCl)c1ccc2c(c1)OCCN2CC(=O)NCCCCCC(=O)Nc1ccc(C(=O)NCCCCCCC(=O)NO)cc1
4,4.37,N#CCCN(C(=O)CCl)c1ccc2c(c1)OCCN2CC(=O)NCCOCCOCCOCCOCCC(=O)Nc1ccc(C(=O)NCCCCCCC(=O)NO)cc1
5,4.99,N#CCCN(C(=O)CCl)c1ccc2c(c1)OCCN2CC(=O)NCCCC(=O)Nc1ccc(C(=O)NCCCCCCC(=O)NO)cc1

# Same assay, conditions: mm1.s
row,pEC50,Compound
1,5.30,N#CCCN(C(=O)CCl)c1ccc2c(c1)OCCN2CC(=O)NCC(=O)Nc1ccc(C(=O)NCCCCCCC(=O)NO)cc1

# Target: Histone deacetylase 4 (Homo sapiens, UniProt P56524)
# Sequence (P56524 whole entry): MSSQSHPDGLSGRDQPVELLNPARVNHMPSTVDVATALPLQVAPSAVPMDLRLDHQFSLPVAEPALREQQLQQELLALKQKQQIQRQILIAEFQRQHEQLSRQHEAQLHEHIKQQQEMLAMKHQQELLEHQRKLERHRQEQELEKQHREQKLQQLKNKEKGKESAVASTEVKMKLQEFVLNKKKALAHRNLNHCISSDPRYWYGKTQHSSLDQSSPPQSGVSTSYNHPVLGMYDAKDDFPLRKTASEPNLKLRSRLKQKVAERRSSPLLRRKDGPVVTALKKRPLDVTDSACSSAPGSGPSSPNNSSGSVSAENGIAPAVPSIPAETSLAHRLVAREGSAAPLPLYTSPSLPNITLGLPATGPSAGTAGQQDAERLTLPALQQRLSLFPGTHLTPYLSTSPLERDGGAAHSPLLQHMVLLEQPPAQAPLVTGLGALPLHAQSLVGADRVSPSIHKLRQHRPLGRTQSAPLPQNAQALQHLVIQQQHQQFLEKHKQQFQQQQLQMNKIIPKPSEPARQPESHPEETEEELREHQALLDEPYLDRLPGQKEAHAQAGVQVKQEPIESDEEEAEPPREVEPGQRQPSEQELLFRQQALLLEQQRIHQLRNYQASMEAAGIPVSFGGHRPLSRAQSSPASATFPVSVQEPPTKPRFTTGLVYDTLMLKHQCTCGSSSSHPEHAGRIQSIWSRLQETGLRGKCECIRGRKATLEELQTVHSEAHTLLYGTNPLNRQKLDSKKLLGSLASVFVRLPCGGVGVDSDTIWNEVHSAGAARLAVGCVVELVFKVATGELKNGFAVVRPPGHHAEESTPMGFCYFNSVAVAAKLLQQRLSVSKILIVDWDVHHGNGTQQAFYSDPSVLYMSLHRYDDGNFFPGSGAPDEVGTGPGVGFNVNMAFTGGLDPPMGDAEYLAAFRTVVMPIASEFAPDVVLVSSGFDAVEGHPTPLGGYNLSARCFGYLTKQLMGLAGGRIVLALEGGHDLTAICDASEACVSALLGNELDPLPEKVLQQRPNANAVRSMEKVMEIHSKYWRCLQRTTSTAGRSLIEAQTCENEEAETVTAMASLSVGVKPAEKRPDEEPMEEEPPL
# Test: Inhibition of human HDAC4 using Boc-Lys(Tfa)-AMC as substrate incubated for 90 mins by fluorescence based assay
# Conditions: not given
row,IC50,Compound
1,Not_active,O=C(CCCCCCC(=O)Nc1ccccc1)NO [VORINOSTAT]
